The values below come from the supplement of paper PMC4862054.

Holding throughout (assay): normalised viability (% of control), CellTiter-Blue; higher = more viable cells (about 100 = DMSO control)
What all share (conditions): incubation time: 72 h
For orientation: Alamar Blue is a resazurin reagent that responds to reducing activity.

Test [1] concerns DU-4475. As to the method:
(§1)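 DSRT, CellTiter-Blue viability, 72 h incubation. Signal is normalised to DMSO and benzethonium chloride controls. Value is the normalised response at dose 8.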

For test [2], the system named is MDA-MB-453. On the procedure: as §1
Test [3] concerns CAL-148. On the procedure: as §1
In test [4] the test system is HDQ-P1. As to the method: as §1
In test [5] the test system is CAL-85-1. As to the method: as §1
Test [6] has as its system CAL-51. On the procedure: as §1
The test system of test [7] is DU-4475. As to the method: (§2)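 DSRT, CellTiter-Blue viability, 72 h incubation. Signal is normalised to DMSO and benzethonium chloride controls. Value is the normalised response at dose 6.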
The source holds these as a separate data set.

For test [8], the system named is MDA-MB-453. On the procedure: as §2
This is another data set of the same source.

The test system of test [9] is CAL-148. On the procedure:
as §2
This is another data set of the same source.

Test [10] relates to HDQ-P1. On the procedure:
as §2
The source holds these as a separate data set.

For test [11], the system named is CAL-85-1. As to the method:
as §2
The source holds these as a separate data set.

Test [12] concerns CAL-51. On the procedure:
as §2
This is another data set of the same source.

The test system of test [13] is DU-4475. As to the method: (§3)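 DSRT, CellTiter-Blue viability, 72 h incubation. Signal is normalised to DMSO and benzethonium chloride controls. Value is the normalised response at dose 7.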
The source holds these as a separate data set.

Test [14] deals with MDA-MB-453. On the procedure:
as §3
The source holds these as a separate data set.

Test [15] relates to CAL-148. As to the method: as §3
The source holds these as a separate data set.

Test [16] concerns HDQ-P1. As to the method: as §3
This is another data set of the same source.

The subject of test [17] is CAL-85-1. On the procedure: as §3
The source holds these as a separate data set.

For test [18], the system named is CAL-51. On the procedure:
as §3
The source holds these as a separate data set.

As to `CC1(C)NC(=O)N(c2ccc([N+](=O)[O-])c(C(F)(F)F)c2)C1=O` [Nilutamide] (3000 nM), the normalised viability was 106% in [1]; 99% in test [2]; 99.1% in test [3]; 127% in test [4]; 96.8% in [5]; 96.9% in [6].

On to `Cn1c(CCCC(=O)O)nc2cc(N(CCCl)CCCl)ccc21` [Bendamustine] (3000 nM), for which the normalised viability was 105% in test [1]; 113% in test [2]; 101% in test [3]; 101% in [4]; 93.8% in test [5]; 112% in test [6].

As for `CN(C)/N=N/c1[nH]cnc1C(N)=O` [Dacarbazine] (3000 nM), the normalised viability turned out to be 101% in test [1]; 95.7% in [2]; 94.8% in test [3]; 95.5% in [4]; 87.3% in test [5]; 97.2% in test [6].

As to `COc1cc([C@@H]2c3cc4c(cc3[C@@H](O[C@@H]3O[C@@H]5CO[C@@H](C)O[C@H]5[C@H](O)[C@H]3O)[C@H]3COC(=O)[C@H]23)OCO4)cc(OC)c1O` [Etoposide] (300 nM), the normalised viability in [7] was determined as 45.6%; in test [8], 104%; in test [9] it was 59.4%; in test [10], 77.3%; in test [11], 98.9%; in [12], 59%.

Regarding `CC(=O)Nc1ccc(C(=O)Nc2ccccc2N)cc1` [CI-994] (300 nM), the normalised viability in test [1] was found to be 90.5%; in test [2], 96.1%; in test [3], 100%; in [4] it was 130%; in test [5], 110%; in test [6], 99.5%.

In the case of `C=C(c1ccc(C(=O)O)cc1)c1cc2c(cc1C)C(C)(C)CCC2(C)C` [Bexarotene] (3000 nM), the normalised viability in test [1] amounted to 97%; in [2], 84.2%; in test [3], 79.8%; in test [4], 77.3%; in test [5] it was 99.2%; in test [6], 92.8%.

In the case of `NC(=O)Nc1cc(-c2cccc(F)c2)sc1C(=O)N[C@H]1CCCNC1` [AZD 7762] (300 nM), the normalised viability in [1] was 118%; in test [2] it was 46.8%; in test [3] it was 96.1%; in test [4] it was 76.6%; in [5], 45.4%; in test [6], 94.1%.

In the case of `Cc1ccc(-n2nc(C(C)(C)C)cc2NC(=O)Nc2ccc(OCCN3CCOCC3)c3ccccc23)cc1` [Doramapimod] (300 nM), the normalised viability in [7] stood at 96.3%; in [8], 105%; in test [9], 91.3%; in test [10] it was 38%; in test [11], 81.1%; in test [12] it was 107%.

On to `CCN(CCCOc1ccc2c(Nc3cc(CC(=O)Nc4cccc(F)c4)[nH]n3)ncnc2c1)CCOP(=O)(O)O` [Barasertib] (100 nM), for which the normalised viability in test [13] is 77%; in [14] it was 55.3%; in test [15], 23.7%; in [16], 76.5%; in test [17], 77.2%; in [18] it was 60.6%.

Regarding `CCC1(c2ccc(N)cc2)CCC(=O)NC1=O` (stereo unspecified) [Aminoglutethimide] (300 nM), the normalised viability in test [7] came out at 93.4%; in [8] it was 89.6%; in test [9] it was 104%; in test [10], 72.9%; in test [11], 92.9%; in test [12] it was 84.8%.

For `O=P1(NCCCl)OCCCN1CCCl` (stereo unspecified) [Ifosfamide] (300 nM), the normalised viability is 78.1% in test [7]; 110% in test [8]; 109% in [9]; 85.1% in [10]; 97.1% in test [11]; 108% in test [12].

Take `CCN(CCCOc1ccc2c(Nc3cc(CC(=O)Nc4cccc(F)c4)[nH]n3)ncnc2c1)CCOP(=O)(O)O` [Barasertib] (30 nM): the normalised viability in test [7] stood at 85.7%; in [8] it was 67.6%; in test [9] it was 23.7%; in test [10], 46%; in [11] it was 77.7%; in test [12] it was 72%.

Turning to `Clc1ccc(Nc2nnc(Cc3ccncc3)c3ccccc23)cc1` [Vatalanib] (3000 nM), the normalised viability came to 111% in test [1]; 75.2% in [2]; 75% in [3]; 91.8% in test [4]; 94% in test [5]; 104% in test [6].

For the compound `Oc1nc(-c2ccc(C(F)(F)F)cc2)nc2c1CSCC2` [XAV-939] (3000 nM), the normalised viability in test [1] turned out to be 94.1%; in test [2], 95.4%; in [3], 89.8%; in [4] it was 76.8%; in test [5], 94.1%; in [6] it was 90.3%.

`Oc1nc(-c2ccc(C(F)(F)F)cc2)nc2c1CSCC2` [XAV-939] (300 nM): the normalised viability in test [7] was 116%; in test [8], 93.8%; in test [9] it was 93.3%; in [10], 112%; in test [11], 89.2%; in test [12], 99.3%.

Take `NC(=O)Nc1cc(-c2cccc(F)c2)sc1C(=O)N[C@H]1CCCNC1` [AZD 7762] (100 nM): the normalised viability in test [13] is 97.4%; in test [14], 88.5%; in test [15], 102%; in [16], 96.5%; in test [17], 89.1%; in test [18], 101%.

In the case of `Cn1c(CCCC(=O)O)nc2cc(N(CCCl)CCCl)ccc21` [Bendamustine] (300 nM), the normalised viability in test [7] amounted to 108%; in test [8] it was 96.8%; in [9], 114%; in test [10], 61%; in [11], 94.6%; in test [12], 107%.

For the compound `CC(=O)Nc1ccc(C(=O)Nc2ccccc2N)cc1` [CI-994] (30 nM), the normalised viability worked out at 85.6% in [7]; 102% in test [8]; 92.8% in [9]; 100% in test [10]; 104% in test [11]; 98.3% in test [12].

In the case of `NC(=O)Nc1cc(-c2cccc(F)c2)sc1C(=O)N[C@H]1CCCNC1` [AZD 7762] (30 nM), the normalised viability came out at 99.8% in test [7]; 110% in test [8]; 93.7% in test [9]; 93.9% in test [10]; 99.5% in [11]; 103% in [12].

Take `N[C@@H](CSC(c1ccccc1)(c1ccccc1)c1ccccc1)C(=O)O` [S-trityl-L-cysteine] (1200 nM): the normalised viability in test [7] was determined as 97.8%; in test [8], 90.5%; in test [9] it was 114%; in test [10], 68.4%; in test [11] it was 95.1%; in test [12], 78.5%.

Turning to `CN(C)/N=N/c1[nH]cnc1C(N)=O` [Dacarbazine] (300 nM), the normalised viability in test [7] is 92.7%; in test [8], 89%; in [9], 84.3%; in test [10], 88.8%; in test [11], 93.4%; in test [12], 89.4%.
